Results published in ChEMBL document CHEMBL5512613, “Design and synthesis of novel 3-amino-5-phenylpyrazole derivatives as tubulin polymerization inhibitors targeting the colchicine-binding site” (Eur J Med Chem, 2024).
pIC50: −log10 of the molar value. Calls of active or inactive are those of the source. The calls are words filed in the database; no cut-off is given here.

Tests used:
[1] = system: MCF7; experiment: Induction of apoptosis in human MCF7 cells at 50 nM incubated for 12 to 48 hrs by AnnexinV-FITC/PI staining based flow cytometry; format: functional, cell-based; details: time 12-48 hrs, TDE = time-dependent effect
[2] = system: MCF7; experiment: Induction of cell cycle arrest in human MCF7 cells assessed as proportion of cells at S phase at 12.5 nM incubated for 24 hrs by PI staining based flow cytometry (reference value: 21.1%); format: functional
[3] = system: HUVEC; experiment: Anti-vascular activity in human HUVEC cells assessed as reduction in length of capillary-like tubules incubated for 6 hrs by Matrigel based inverted fluorescence microscopy; format: functional, cell-based; details: dose 6.25-50 nM
[4] = system: MCF7; experiment: Induction of apoptosis in human MCF7 cells at 12.5 to 50 nM incubated for 24 hrs by AnnexinV-FITC/PI staining based flow cytometry; format: functional, cell-based; details: dose 12.5-50 nM
[5] = system: MCF7; experiment: Antitumor activity against human MCF7 cells xenografted in BALB/c mouse assessed as inhibition of tumor growth by measuring decrease in tumor weight at 20 mg/kg, ip administered every 3 days for 21 days; format: functional; details: MCF7, 504 h, time 21 day, read-out: TGI
[6] = molecular target: T1, Tubulin (Homo sapiens) (UniProt P68371+Q9H4B7+P0DPH7+P68366+Q13509+Q71U36+P04350+Q3ZCM7+P07437+P68363+Q9BQE3+Q6PEY2+Q13885+Q9BVA1+Q9BUF5); experiment: Displacement of [3H]colchicine from tubulin (unknown origin) at 1 uM incubated for 2 hrs by scinitillation proximity assay; format: protein-complex assay
[7] = system: MCF7; experiment: Inhibition of colony formation in human MCF7 cells at 5 to 20 nM incubated for 2 weeks in 5% CO2 at 37 degC by crystal violet staining based analysis; format: functional, cell-based; details: dose 5-20 nM
[8] = system: HeLa; experiment: Antiproliferative activity against human HeLa cells assessed as inhibition of cell growth incubated for 48 hrs by MTT assay; format: functional, cell-based
[9] = system: MCF7; experiment: Induction of cell cycle arrest in human MCF7 cells assessed as proportion of cells at G2 phase at 25 nM incubated for 12 hrs by PI staining based flow cytometry (reference value: 14.4%); format: functional
[10] = system: MCF7; experiment: Induction of cell cycle arrest in human MCF7 cells assessed as proportion of cells at S phase at 25 nM incubated for 12 hrs by PI staining based flow cytometry (reference value: 21.1%); format: functional
[11] = molecular target: Tubulin; experiment: Inhibition of tubulin polymerization (unknown origin) measured for 60 mins by fluorescence based analysis; format: protein-complex assay, Homo sapiens
[12] = system: MCF7; experiment: Antitumor activity against human MCF7 cells xenografted in BALB/c mouse assessed as inhibition of tumor growth by measuring decrease in tumor weight at 5 mg/kg, ip administered every 3 days for 21 days; format: functional; details: MCF7, 504 h, time 21 day, read-out: TGI
[13] = system: MCF7; experiment: Induction of cell cycle arrest in human MCF7 cells assessed as increase in cyclin B1 protein expression at 6.25 to 50 nM incubated for 24 hrs by western blot analysis; format: functional, cell-based; details: dose 6.25-50 nM
[14] = system: MCF7; experiment: Induction of cell cycle arrest in human MCF7 cells assessed as proportion of cells at G2 phase at 25 nM incubated for 6 hrs by PI staining based flow cytometry (reference value: 14.4%); format: functional
[15] = system: MCF7; experiment: Induction of apoptosis in human MCF7 cells assessed as increase in cleaved PARP protein expression at 6.25 to 50 nM incubated for 24 hrs by western blot analysis; format: functional, cell-based; details: dose 6.25-50 nM
[16] = system: MCF7; experiment: Induction of apoptosis in human MCF7 cells assessed as increase in Bax protein expression at 6.25 to 50 nM incubated for 24 hrs by western blot analysis; format: functional, cell-based; details: dose 6.25-50 nM
[17] = system: MCF7; experiment: Induction of apoptosis in human MCF7 cells assessed as decrease in Bcl-2 protein expression at 6.25 to 50 nM incubated for 24 hrs by western blot analysis; format: functional, cell-based; details: dose 6.25-50 nM
[18] = system: MCF7; experiment: Induction of cell cycle arrest in human MCF7 cells assessed as increase in CDK7 protein expression at 6.25 to 50 nM incubated for 24 hrs by western blot analysis; format: functional, cell-based; details: dose 6.25-50 nM
[19] = system: A549; experiment: Inhibition of cell migration in human A549 cells assessed as decrease in number of cells passing through membrane at 6.25 to 50 nM incubated for 24 hrs by transwell assay; format: functional, cell-based; details: dose 6.25-50 nM
[20] = system: MCF7; experiment: Induction of cell cycle arrest in human MCF7 cells assessed as proportion of cells at S phase at 6.25 nM incubated for 24 hrs by PI staining based flow cytometry (reference value: 21.1%); format: functional
[21] = system: MCF7; experiment: Induction of cell cycle arrest in human MCF7 cells assessed as proportion of cells at G2 phase at 12.5 nM incubated for 24 hrs by PI staining based flow cytometry (reference value: 14.4%); format: functional
[22] = system: MCF7; experiment: Antiproliferative activity against human MCF7 cells assessed as inhibition of cell growth incubated for 48 hrs by MTT assay; format: functional, cell-based; details: MCF7, 48 h
[23] = system: MCF7; experiment: Induction of cell cycle arrest in human MCF7 cells assessed as proportion of cells at G1 phase at 12.5 nM incubated for 24 hrs by PI staining based flow cytometry (reference value: 64.5%); format: functional
[24] = system: MCF7; experiment: Induction of apoptosis in human MCF7 cells assessed as increase in cleaved caspase-3 protein expression at 6.25 to 50 nM incubated for 24 hrs by western blot analysis; format: functional, cell-based; details: dose 6.25-50 nM
[25] = system: MCF7; experiment: Induction of cell cycle arrest in human MCF7 cells assessed as proportion of cells at G2 phase at 25 nM incubated for 24 hrs by PI staining based flow cytometry (reference value: 14.4%); format: functional
[26] = system: MCF7; experiment: Induction of apoptosis in human MCF7 cells assessed as increase in cleaved caspase-9 protein expression at 6.25 to 50 nM incubated for 24 hrs by western blot analysis; format: functional, cell-based; details: dose 6.25-50 nM
[27] = system: MCF7; experiment: Induction of apoptosis in human MCF7 cells assessed as increase in Bim protein expression at 6.25 to 50 nM incubated for 24 hrs by western blot analysis; format: functional, cell-based; details: dose 6.25-50 nM
[28] = Cytotoxicity against human L02 cells assessed as inhibition of cell growth incubated for 48 hrs by MTT assay; format: toxicity, cell-based
[29] = molecular target: T1, Tubulin (Homo sapiens); experiment: Displacement of [3H]colchicine from tubulin (unknown origin) at 5 uM incubated for 2 hrs by scinitillation proximity assay; format: protein-complex assay
[30] = molecular target: T1, Tubulin (Homo sapiens); experiment: Inhibition of tubulin polymerization in human MCF7 cells assessed as disruption of microtubule network into punctate at 25 to 200 nM incubated for 8 hrs by DAPI staining based immunofluorescence assay; format: cell-based; details: dose 25-200 nM
[31] = system: MCF7; experiment: Induction of cell cycle arrest in human MCF7 cells assessed as proportion of cells at S phase at 25 nM incubated for 6 hrs by PI staining based flow cytometry (reference value: 21.1%); format: functional
[32] = system: A549; experiment: Inhibition of cell migration in human A549 cells at 2.5 to 10 nM incubated for 12 to 48 hrs by fluorescent inverted microscopy; format: functional, cell-based; details: dose 2.5-10 nM, time 12-48 hrs
[33] = system: A549; experiment: Antiproliferative activity against human A549 cells assessed as inhibition of cell growth incubated for 48 hrs by MTT assay; format: functional, cell-based; details: A549, 48 h
[34] = Toxicity against BALB/c mouse xenografted with human MCF7 cells assessed as body weight changes at 5 to 20 mg/kg, ip administered every 3 days for 21 days; format: organism-based; details: in vivo, 504 h, dose 5-20 mg/kg, time 21 day
[35] = system: MCF7; experiment: Induction of cell cycle arrest in human MCF7 cells assessed as proportion of cells at S phase at 25 nM incubated for 24 hrs by PI staining based flow cytometry (reference value: 21.1%); format: functional

- inhibition [6]: 68.4%
- pIC50 [8]: 6.96
- pIC50 [11]: 5.73
- pIC50 [22]: 7.40
- inhibition [29]: 91.4%
- inhibition [30]: Active
- pIC50 [33]: 6.41
Structure (SMILES): COc1cc(C(=O)n2nc(N)cc2-c2ccc(C)cc2)cc(OC)c1OC
- Activity [1]: Tde
- Activity [2]: 15.7%
- Activity [3]: Dose-Dependent Effect
- Activity [4]: Dose-Dependent Effect
- inhibition in vivo at 20 mg/kg [5]: 69%
- inhibition [7]: Active
- Activity [9]: 62.8%
- Activity [10]: 22.9%
- inhibition in vivo at 5 mg/kg [12]: 27%
- Activity [13]: Active
- Activity [14]: 46.7%
- Activity [15]: Active
- Activity [16]: Active
- Activity [17]: Active
- Activity [18]: Active
- inhibition [19]: Active
- Activity [20]: 18.4%
- Activity [21]: 39.2%
- Activity [23]: 45.1%
- Activity [24]: Active
- Activity [25]: 80.2%
- Activity [26]: Active
- Activity [27]: Active
- IC50 at 48 h [28]: 2730 nM
- Activity [31]: 22%
- inhibition [32]: Dose-Dependent Effect
- Activity [34]: Non-Toxic
- Activity [35]: 10.65%
